Source: ChEMBL document CHEMBL1145741, “Inhibition of bacterial IF2 binding to fMet-tRNA((fMet)) by aminoglycosides” (Bioorg Med Chem Lett, 2003)

Tests used:
[1] = Inhibitory activity of the aminoglycoside on Staphylococcus aureus IF-2 binding to fMet-tRNA(fMet)
[2] = system: Staphylococcus aureus; assay: (§1) Maximal inhibition of the aminoglycoside on Staphylococcus aureus IF-2 binding to fMet-tRNA(fMet)
[3] = system: Staphylococcus aureus; assay: (§2) Denaturation rate constant of IF2 in the presence of aminoglycoside
[4] = (§3) Inhibitory activity against the displacement of Picogreen from fMet-tRNA(fMet) by the aminoglycoside; parameters: species or system Staphylococcus aureus
[5] = system: Staphylococcus aureus; assay: (§4) Maximal inhibition against the displacement of Picogreen from fMet-tRNA(fMet) by the aminoglycoside
[6] = system: Staphylococcus aureus; assay: Inhibitory activity of the aminoglycoside on Staphylococcus aureus IF-2 binding to fMet-tRNA (fMet); format: functional
[7] = system: Staphylococcus aureus; assay: as §3; format: functional
[8] = system: Staphylococcus aureus; assay: as §4; format: functional
[9] = system: Staphylococcus aureus; assay: as §1; format: functional
[10] = system: Staphylococcus aureus; assay: as §2; format: functional

SMILES	IC50 [1] [nM]	inhibition [2] [%]	Denaturation rate constant [3] [min⁻¹]	IC50 [4] [nM]	inhibition [5] [%]	IC50 [6] [nM]	IC50 [7] [nM]	inhibition [8] [%]	Inhibition [9] [%]	Denaturation rate constant [10] [min⁻¹]
CN[C@@H]1C[C@H](N)[C@@H](O)[C@H](O[C@H]2O[C@H](CO)[C@H](O)[C@@H]3O[C@@]4(O[C@@H]23)O[C@H]([C@H](N)CO)[C@H](O)[C@H](O)[C@H]4O)[C@H]1O [HYGROMYCIN]	66000	84	0.096	278	81					
CN[C@@H]1[C@H](O[C@H]2[C@H](O[C@H]3[C@H](O)[C@@H](O)[C@H](N=C(N)N)[C@@H](O)[C@@H]3N=C(N)N)O[C@@H](C)[C@]2(O)C=O)O[C@@H](CO)[C@H](O)[C@H]1O [STREPTOMYCIN]	1490	43	0.094	1790	95					
CNC1C(O)C(OC2C(N)CC(N)C(OC3OC(CN)CCC3N)C2O)OCC1(C)O (configuration not stated) [GENTAMICIN C1A]	450	66								

More lines, main results first:

IC50 [1] [nM]	inhibition [2] [%]	Denaturation rate constant [3] [min⁻¹]	IC50 [4] [nM]	inhibition [5] [%]	IC50 [6] [nM]	IC50 [7] [nM]	SMILES	inhibition [8] [%]	Inhibition [9] [%]	Denaturation rate constant [10] [min⁻¹]
50	76	0.095	9	100			NC[C@@H]1O[C@H](O[C@H]2[C@@H](O)[C@H](O[C@@H]3[C@@H](O)[C@H](N)C[C@H](N)[C@H]3O[C@H]3O[C@H](CN)[C@@H](O)[C@H](O)[C@H]3N)O[C@@H]2CO)[C@H](N)[C@@H](O)[C@@H]1O [FRAMYCETIN]			
					7	7	CN[C@@H]1[C@@H](O)[C@@H](O[C@@H]2[C@@H](O)[C@H](O[C@H]3OC(CN)=CC[C@H]3N)[C@@H](N)C[C@H]2N)OC[C@]1(C)O [SISOMICIN]	100	75	0.087
1020	43	0.093	160	85			NCC[C@H](O)C(=O)N[C@@H]1C[C@H](N)[C@@H](O[C@H]2O[C@H](CN)[C@@H](O)[C@H](O)[C@H]2O)[C@H](O)[C@H]1O[C@H]1O[C@H](CO)[C@@H](O)[C@H](N)[C@H]1O [AMIKACIN]			
17800	61	0.092	24	92			NC[C@@H]1O[C@@H](O[C@H]2[C@H](O)[C@@H](O[C@H]3O[C@H](CO)[C@@H](O)[C@H](N)[C@H]3O)[C@H](N)C[C@@H]2N)[C@@H](O)[C@H](O)[C@H]1O [KANAMYCIN A]			
